Source: patent US20250051324A1, “PARP INHIBITOR, PHARMACEUTICAL COMPOSITION COMPRISING SAME, AND USE THEREOF” (KEYTHERA (SUZHOU) BIO-PHARMACEUTICALS CO., LIMITED, priority 2021, published 2025)
Read-outs that look alike come from different tables or passages of the source.

Legend:
PARP1 [1] = target: T1, PARP1 (Homo sapiens (Human), UniProt P09874); experiment: PARP enzyme activity assay (PARP1 chemiluminescent assay kit); format: biochemical; settings: enzyme inhibitory activity, read-out: PARP-1 IC50
Source text: Experimental Materials: The PARP1 assay kit was purchased from BPS Bioscience, USA, specifically the 384-well chemiluminescent assay kit (Catalog No.: #80551).
Experimental Principle: PARP can catalyze the transfer of ADP-ribose residues from NAD+ to target substrates, thereby modifying proteins through ribosylation. This experiment measures PARP1 enzyme activity by detecting the poly(ADP-ribosylation) of histones by PARP1.
Preparation of Reagents and Test Compounds: The 10× assay buffer included in the kit was diluted to 1× with distilled water. The test compound (stock concentration of 10 mM) was diluted to 10 μM with a DMSO solution and then serially diluted in a 1:3 ratio. The serially diluted compounds were further diluted 10-fold with the 1× assay buffer.
Experimental Method: The procedure was carried out according to the kit's instructions:
1. The 5× histone mixture was diluted to 1× with PBS, and 25 μL was added to each well of a 384-well plate, incubating overnight at 4° C.
2. After incubation, 100 μL of PBST (0.05% Tween 20) was added to each well for washing, repeated three times. Then, 100 μL of blocking solution was added to each well and incubated at room temperature for 90 minutes.
3. After incubation, the wells were washed three times with PBST, and then 1.25 μL of 10× assay buffer, 1.25 μL of 10×PARP assay mixture, 2.5 μL of activation DNA (5×), and 7.5 μL of distilled water were added to each well.
4. […] The positive control group and the negative control group were added with 1× assay buffer containing the same concentration of DMSO.
5. Next, 10 μL of 2.5 ng/μL PARP1 enzyme was added to the test compound and positive control groups, while 10 μL of 1× assay buffer was added to the negative control group, and the mixture was incubated at room temperature for 60 minutes.
6. Streptavidin-HRP was diluted 1:50 with the blocking solution. After incubation, the plate was washed three times with PBST, and 25 μL of the diluted streptavidin-HRP solution was added to each well, incubating at room temperature for 30 minutes.
7. After incubation, the plate was washed three times with PBST, and 50 μL of the mixed substrate A and substrate B in equal volumes was added. The luminescence signal was immediately read on a Synergy HTX multi-mode reader.
(§1) 8. Data analysis was performed using GraphPad Prism 8.0 software. The inhibition rate %=100*(average luminescence signal of the positive control group−luminescence signal of the compound)/(average luminescence signal of the positive control group−average luminescence signal of the negative control group). The IC50 value was obtained by plotting the logarithm of the compound concentration against the percentage inhibition rate.

[2] = tested on: UWB1.289 ovarian cancer cells; experiment: Cell proliferation assay, UWB1.289; format: cell-based; settings: UWB1289, 168 h; proliferation, 7 days; read-out: UWB1.289 Cell IC50
Protocol: (§2) Experimental Materials: MDA-MB-436 or UWB1.289 cell lines were purchased from Cobioer Biosciences Co. Ltd. (Nanjing, China). The STR identification results were a complete match, and mycoplasma testing was negative. MDA-MB-436 cells were cultured in DMEM complete medium containing 10% fetal bovine serum, 1% penicillin-streptomycin, 1% insulin, and 16 μg/mL glutathione; UWB1.289 cells were cultured in RMPI1640 complete medium containing 10% fetal bovine serum and 1% penicillin-streptomycin.
(§3) 1. MDA-MB-436 or UWB1.289 cells were cultured in the aforementioned medium (culture conditions: 37° C., 5.0% CO2 in air) until they reached the logarithmic growth phase. The cells were then digested with trypsin containing 0.25% EDTA, centrifuged at 1000 rpm, and the supernatant was discarded. Cell culture medium was added, and the cell suspension was adjusted to 2×10^4/mL after counting. 135 μL of the cell suspension per well was taken and cultured in a 96-well cell culture plate for 16 hours (culture conditions: 37° C., 5.0% CO2 in air).
(§4) 2. The test compounds, stored at a concentration of 10 mM, were diluted 2.5 times with DMSO and then serially diluted in a 1:3 gradient (9 gradients). The gradient-diluted samples were further diluted 40 times with serum-free medium, and 15 μL of each was added to the 96-well cell culture plate. The positive control group received serum-free medium containing the same concentration of DMSO, and the negative control group received medium without cells. The cells were then cultured for an additional 7 days.
(§5) 3. After the culture period, the cell culture plate was placed at room temperature for 30 minutes. Then, 100 μL of CellCounting-Lite 2.0 reagent (Vazyme, #DD1101) was added to each well, mixed thoroughly, and incubated in the dark at room temperature for 10 minutes. The luminescence signal was read using a Synergy HTX multi-mode reader.
as §1, with “4. Data” for “8. Data”, “rate (%) was calculated as 100*(average” for “rate %=100*(average”

[3] = Evaluation of pharmacokinetics in mice; settings: male, ICR (CD1), mouse, plasma, po, 10 mg/kg
Protocol: Test Objective: The pharmacokinetics of the example compounds of the present application were tested in mice. By measuring the drug concentration in mouse plasma, the pharmacokinetic behavior of the compounds of the present invention was studied to evaluate their pharmacokinetic characteristics.
Test Animals: 6-8 Week Old Male ICR (CD1) Mice
Oral Gavage Drug Preparation: An appropriate amount of the test compound was first weighed and dissolved in DMSO (Macklin cas: 67-68-5) to prepare a 20 mg/mL solution. Then, 75 μL of this solution was added to 150 μL of Solutol (Sigma cas: 70142-34-6), followed by 1.275 mL of 20% Captisol (Selleck cas: 182410-00-0), resulting in a final drug concentration of 1 mg/mL.
Intravenous Injection Drug Preparation: An appropriate amount of the test compound was first weighed and dissolved in DMSO (Macklin cas: 67-68-5) to prepare a 30 mg/mL solution. Then, 15 μL of this solution was added to 150 μL of Solutol (Sigma cas: 70142-34-6), followed by 1.335 mL of 20% Captisol (Selleck cas: 182410-00-0), resulting in a final drug concentration of 0.3 mg/mL.
Procedures: The mice were fasted overnight with free access to water before the experiment. Food was restored two hours after dosing. Blood samples were collected at different time points after intravenous injection or oral gavage of the test compound in mice, and the compound concentration in plasma was measured. Approximately 50 μL of blood was collected from each animal using a capillary sampling tube via the orbital venous plexus, with heparin sodium as an anticoagulant. Blood samples were placed on ice, centrifuged at 3500 r/min for 10 minutes to separate the plasma, and 20 μL of the collected plasma was added to 200 μL of acetonitrile (Merck cas: 75-05-8) containing 200 nM dexamethasone (Selleck cas: 50-02-2) as an internal standard. The mixture was centrifuged at 8000 r/min for 20 minutes. After centrifugation, 150 μL of the supernatant was transferred to a new centrifuge tube, and 150 μL of 0.1% formic acid (Fisher cas: 207868) was added. The mixture was mixed well, and 5 μL of the sample was subjected to quantitative analysis by liquid chromatography-mass spectrometry (Q-TOF LC/MS).
The test compound was serially diluted with DMSO to cover the compound concentrations expected in plasma samples to be tested, with a blank sample (containing only DMSO) included.
2 μL of each diluted sample at various concentrations was added to 18 μL of normal ICR mouse plasma, mixed, and then added to 200 μL of acetonitrile (Merck cas: 75-05-8) containing 200 nM dexamethasone (Selleck cas: 50-02-2) as an internal standard. The mixture was centrifuged for 20 minutes (8000 r/min). 150 μL of the supernatant was transferred to a new centrifuge tube, and 150 μL of 0.1% formic acid (Fisher cas: 207868) was added. The mixture was mixed well, and 5 μL of the sample was subjected to quantitative analysis by liquid chromatography-mass spectrometry (Q-TOF LC/MS).
The final standard curve was plotted using the concentration of the test compound after dilution on the abscissa and the ratio of the signal of the compound to the internal standard (dexamethasone) on the ordinate. The standard curve was generated using linear regression with GraphPad Prism 8 software (R2>0.9900).
Data Analysis: calculation of pharmacokinetic parameters: the concentration of the test compound in plasma at different time points after intravenous injection or oral gavage in ICR mice was determined based on the above standard curve, and pharmacokinetic parameters (T1/2, Cmax, AUC, etc.) were calculated using the Phoenix WinNonlin 8.1 non-compartmental analysis model.

PARP1 [4] = target: T1, PARP1; experiment: PARP1 trapping assay; format: biochemical; settings: read-out: Inhibitory Effect on PARP1 Trapping IC50
Protocol: [table] […] 1. A 4× enzyme reaction mixture, comprising PARP1, PARP2, and GST-Tb antibody, was prepared with the buffer and 4 μL of the enzyme reaction mixture was added to a 384-well plate. 2. A 4×PARP1 and PARP2 probe reaction mixture was prepared with the buffer and 4 μL of the probe reaction mixture was added to the 384-well plate. 3. A series of gradient-diluted compounds were prepared and 4 μL of the diluted compounds were added to the 384-well plate, and incubated at room temperature for 45 minutes. 4. After incubation, 4 μL of 4×NAD reaction mixture was added to the 384-well plate and incubated at room temperature for 10 minutes. 5. After incubation, the plate was read using a plate reader. 6. Data Analysis: The percentage inhibition rate was calculated as follows: Inhibition Rate (%)=(Reading of Compound Group−Reading of Blank Group)/(Reading of Vehicle Control Group−Reading of Blank Group).

[5] = tested on: MDA-MB-436 breast cancer cells; experiment: Cell proliferation assay, MDA-MB-436; format: cell-based; settings: Homo sapiens, MDA-MB-436, 168 h, read-out: MDA-MB-436 Cell IC50
Protocol: as §2, §3, §4, §5
as §1, with “4. Data” for “8. Data”, “rate (%) was calculated as 100*(average” for “rate %=100*(average”

T1 sequence (P09874 whole entry): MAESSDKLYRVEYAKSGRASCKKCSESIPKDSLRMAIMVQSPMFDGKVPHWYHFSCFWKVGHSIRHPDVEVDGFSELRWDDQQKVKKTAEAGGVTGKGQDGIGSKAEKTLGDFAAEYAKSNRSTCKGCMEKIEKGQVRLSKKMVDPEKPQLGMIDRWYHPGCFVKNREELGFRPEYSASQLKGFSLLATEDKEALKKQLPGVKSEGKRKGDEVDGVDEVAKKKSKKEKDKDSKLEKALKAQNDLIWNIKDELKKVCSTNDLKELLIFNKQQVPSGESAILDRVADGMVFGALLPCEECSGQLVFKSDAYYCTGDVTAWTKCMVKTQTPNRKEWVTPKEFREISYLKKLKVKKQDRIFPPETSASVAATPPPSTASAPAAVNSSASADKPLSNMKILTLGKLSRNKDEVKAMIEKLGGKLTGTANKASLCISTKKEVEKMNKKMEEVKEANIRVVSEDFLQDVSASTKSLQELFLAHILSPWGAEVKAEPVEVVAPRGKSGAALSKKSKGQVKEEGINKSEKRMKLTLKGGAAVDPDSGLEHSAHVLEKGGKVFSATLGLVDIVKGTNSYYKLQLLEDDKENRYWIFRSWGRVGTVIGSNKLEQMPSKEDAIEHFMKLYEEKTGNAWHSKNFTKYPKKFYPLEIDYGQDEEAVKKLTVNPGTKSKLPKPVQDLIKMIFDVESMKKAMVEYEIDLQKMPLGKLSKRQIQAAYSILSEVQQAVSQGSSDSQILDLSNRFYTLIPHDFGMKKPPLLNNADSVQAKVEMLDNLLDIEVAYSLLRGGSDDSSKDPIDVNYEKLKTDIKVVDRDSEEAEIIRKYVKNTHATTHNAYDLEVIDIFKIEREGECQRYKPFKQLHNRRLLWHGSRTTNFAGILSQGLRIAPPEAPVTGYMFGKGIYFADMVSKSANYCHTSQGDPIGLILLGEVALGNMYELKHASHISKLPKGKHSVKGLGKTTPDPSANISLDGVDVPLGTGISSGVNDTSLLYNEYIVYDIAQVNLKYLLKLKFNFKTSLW

| SMILES | IC50 (PARP1 [1]) [nM] | IC50 [2] [nM] | also measured |
| --- | --- | --- | --- |
| CNS(=O)(=O)c1ccc(N2CCN(Cc3cnc4c(C)c(C(F)(F)F)c(=O)[nH]c4c3)CC2)cc1 [Compound 13, N-methyl-4-(4-((8-methyl-6-oxo-7-(trifluoromethyl)-5,6-dihydro-1,5-naphthyridin-3-yl)methyl)piperazin-1-yl)benzenesulfonamide] | 7.37 | – | – |
| Cc1c(C(F)(F)F)c(=O)[nH]c2cc(CN3CCN(c4ccc5[nH]c(=O)[nH]c5n4)CC3)cnc12 [Compound 18, 4-methyl-7-((4-(2-oxo-2,3-dihydro-1H-imidazo[4,5-b]pyridin-5-yl)piperazin-1-yl)methyl)-3-(trifluoromethyl)-1,5-naphthyridin-2(1H)-one] | 15.9 | – | – |
| Cc1c(C(F)(F)F)c(=O)[nH]c2cc(CN3CCN(c4ncc(C(F)(F)F)cn4)CC3)cnc12 [Compound 19, 4-methyl-3-(trifluoromethyl)-7-((4-(5-(trifluoromethyl)pyrimidin-2-yl)piperazin-1-yl)methyl)-1,5-naphthyridin-2(1H)-one] | 5.48 | – | – |
| Cc1c(C(F)(F)F)c(=O)[nH]c2cc(CN3CCN(c4ccc(C(=O)NC5CC5)nc4)CC3)cnc12 [Compound 99, N-cyclopropyl-5-(4-((8-methyl-6-oxo-7-(trifluoromethyl)-5,6-dihydro-1,5-naphthyridin-3-yl)methyl)piperazin-1-yl)picolinamide] | – | – | IC50 (PARP1 [4]): 1.53 nM; IC50 ([5]; proliferation, 7 days): 1.69 nM |
| CNC(=O)c1ccc(N2CCN(Cc3cnc4c(C)c(C(F)F)c(=O)[nH]c4c3)CC2)cn1 [Compound 100, 5-(4-((7-(difluoromethyl)-8-methyl-6-oxo-5,6-dihydro-1,5-naphthyridin-3-yl)methyl)piperazin-1-yl)-N-methylpicolinamide] | – | – | IC50 (PARP1 [4]): 2.58 nM; IC50 [5]: 2.05 nM |

The next lines start with results.

| IC50 (PARP1 [1]) [nM] | IC50 [2] [nM] | SMILES | also measured |
| --- | --- | --- | --- |
| 2.55 | 12.6 | CNC(=O)c1ccc(N2CCN(Cc3cnc4c(C)c(C(F)(F)F)c(=O)[nH]c4c3)C(COC)C2)cn1 (centres unmarked) [Compound 8, 5-(3-(methoxymethyl)-4-((8-methyl-6-oxo-7-(trifluoromethyl)-5,6-dihydro-1,5-naphthyridin-3-yl)methyl)piperazin-1-yl)-N-methylpicolinamide] | – |
| 2.79 | 15 | CNC(=O)c1ccc(N2CCN(Cc3cnc4c(C)c(C(F)(F)F)c(=O)[nH]c4c3)CC2C)cn1 (centres unmarked) [Compound 10, N-methyl-5-(2-methyl-4-((8-methyl-6-oxo-7-(trifluoromethyl)-5,6-dihydro-1,5-naphthyridin-3-yl)methyl)piperazin-1-yl)picolinamide] | – |
| 0.96 | 28.5 | CNC(=O)c1ccc(N2CCN(Cc3cnc4c(C)c(C(F)(F)F)c(=O)[nH]c4c3)C(C)C2)cn1 (centres unmarked) [Compound 11, N-methyl-5-(3-methyl-4-((8-methyl-6-oxo-7-(trifluoromethyl)-5,6-dihydro-1,5-naphthyridin-3-yl)methyl)piperazin-1-yl)picolinamide] | AUC(0-inf) [3]: 1500 µg·h/mL; Cmax [3]: 55.9 µg/mL; half-life [3]: 18.9 h |
| 1.26 | 26.6 | Cc1c(C(F)(F)F)c(=O)[nH]c2cc(CN3CCN(c4ccc(C#N)cn4)CC3)cnc12 [Compound 20, 6-(4-((8-methyl-6-oxo-7-(trifluoromethyl)-5,6-dihydro-1,5-naphthyridin-3-yl)methyl)piperazin-1-yl)nicotinonitrile] | – |
| – | 13.6 | CNC(=O)c1ccc(N2CCN(Cc3cnc4c(C)c(C(F)(F)F)c(=O)[nH]c4c3)C[C@@H]2C)cn1 [Compound 53, (S)—N-methyl-5-(2-methyl-4-((8-methyl-6-oxo-7-(trifluoromethyl)-5,6-dihydro-1,5-naphthyridin-3-yl)methyl)piperazin-1-yl)picolinamide] | – |
| – | 8.13 | CNC(=O)c1ccc(C2CCN(Cc3cnc4c(C)c(C(F)(F)F)c(=O)[nH]c4c3)CC2)cn1 [Compound 71, N-methyl-5-(1-((8-methyl-6-oxo-7-(trifluoromethyl)-5,6-dihydro-1,5-naphthyridin-3-yl)methyl)piperidin-4-yl)picolinamide] | – |
